Source: patent US20040044304A1, “Local drug delivery using photosensitizer-mediated and electromagnetic radiation enhanced vascular permeability” (priority 2002, published 2004)
Like-named read-outs stand apart in the source and are kept apart here.

System: vascular structures in the dorsal window chamber
Assay type: in vivo, mice of strain C3H
Conditions: MRV6401 0.05 mg/kg i.v., red 660 nm-680 nm
Excerpt: Male mice of strain C3H (sourced from The Jackson Laboratory, 600 Main Street, Bar Harbor, Me. 04609, USA) weighing between 28-30 grams were surgically implanted with titanium back-pack window chambers in a similar manner to that described in Example 2. A chamber was considered suitable for subsequent studies if microscopic examination of the preparation met the same criteria as those described in Example 2. The intra-vital microscopic studies were undertaken on unsedated animals held in the same Plexiglass tube assembly as that described in Example 2. The intra-vital microscopy was also performed using the same Leitz Dialux 22 microscope fitted with the same objective lenses, and mercury lamp trans- and epi-illumination sources. However, for the studies described in Example 3, the irradiation source was not a DD4 laser, but rather, activation of the photosensitizers was undertaken using narrow band filtered light from the mercury lamp epi-illumination source. Two different wavelength bands were used to activate the photosensitizers, namely green or red light (see Table 5 below). These wavelengths were obtained by use of filter cubes placed in a Leitz Ploemopak illumination system (NcBain Instruments, Inc., 9601 […] Avenue, Chatsworth, Calif., 91311, USA) fitted to the Leitz Dialux 22 microscope. For activation using green light epi-illumination (530 nm-560 nm) the BP 530-560 band pass excitation filter of the Leitz Ploemopak N2 cube (Cat. No. 513-609, E. Leitz Inc., Rockleigh, N.J., 07647, USA) was used. For activation using red light epi-illumination (660 nm-680 nm) a 670DF20 band pass filter (Cat. No., XF1028, Omega Optical Co., Brattleboro, Vt., 05302, USA) fitted in a Leitz Ploemopak cube was used. In all cases, the activation of the photosensitizer was performed in a defined region that was smaller than the total field of tissue contained within the window chamber. The total mouse dorsal tissue contained within the window chambers was a circle of 1.0 cm diameter, corresponding to a total area of approximately 0.785 cm^2. The illumination field of the activating light was a circle of 0.225 cm diameter, corresponding to a total area of approximately 0.040 cm^2. Thus, approximately 5% of the total area of the chamber was directly illuminated. Mice bearing a dorsal window chamber were placed in the Plexiglass restrainer on the microscope stage for pre-treatment evaluation of the vascular structures. Prior to photosensitizer administration, the architecture of the vascular structures in the entire window chamber in all mice was examined using 410 nm filtered blue light from the mercury trans-illumination source of the intra-vital microscope, and the images which were generated were recorded on video tape for subsequent evaluation. The methods for imaging and recording were as described in Example 2. Briefly, the imaging source was a […] mercury arc lamp (Type 307-143.004 from Ernst Leitz Wetzlar GmBH, Germany) which was powered by an HBO 100 power supply (LEP Ltd., Scarsdale, N.Y.). The output from this source was filtered using a #H43157 interference filter (Edmund Scientific, 101 East Gloucester Pike, Barrington, N.J., 08007-1380), to produce a beam of 410 nm light. Typically, the power density of the imaging light was less than 0.6 […]^2. Two or three fields in each chamber were designated as fields of interest and their location recorded for post-treatment evaluation. These fields were chosen such that they were not adjacent to each other, and one of these fields was chosen so that it was within the region of the chamber that was to receive the activating light illumination. Following identification, recording and designation of the fields of interest, mice were injected with either the photosensitizer […] Medical Technologies, 336 Bollay Drive, Santa Barbara, Calif., 93117) formulated in egg yolk phospholipid ([…] Polar Lipids, Inc., 700 Industrial Park Avenue, Alabaster, Ala., 35007), the photosensitizer […]

[1] = animal #10, 12 J/cm^2, probe 6 min post light irradiation
[2] = animal #13, 8 J/cm^2, probe administered 24 hr post light irradiation

Question: With `C=Cc1c(C)c2[n]3c1=CC1=NC(=Cc4c(C)c5c([n]4[In]3[Cl])C(=C3N=C(C=2)[C@@H](C)[C@@H]3CCC(=O)OC)CC5=O)C(CC)=C1C` [MV6401, indium methyl pyropheophorbide] as the molecule, how does the “TRITC-Dextran in tissue and cells in regions outside the treatment field at 24 hr time point” value (animal #8, 12 J/cm^2, 155 kD probe 10 min post light irradiation) read?
Answer: The value was “no significant fluorescence from TRITC-Dextran”.

Question: And the “Leakage of 155 kD TRITC-Dextran in the treatment field at 24 hr time point” value (animal #8, 12 J/cm^2, probe 10 min post light irradiation)?
Answer: The value was “significant leakage in region 2”.

Question: What about the “Leakage of secondary probe 150 kD FITC-Dextran from vessels in the treatment field, 20 min post probe” value (animal #8, 12 J/cm^2, probe administered 24 hr post light irradiation) of the same molecule?
Answer: Its value is “leakage of FITC from vessels in the treated region 2”.

Question: And the “Leakage of secondary probe 150 kD FITC-Dextran from vessels outside the treatment field, 20 min post probe” value (animal #8, 12 J/cm^2, probe administered 24 hr post light irradiation, 0.05 mg/kg)?
Answer: The value was “some minimal leakage from the vessels in region 1”.

Question: What about the “150 kD FITC-Dextran in tissue and cells surrounding vessels (regions 1 treated and 3) at 24 hr” value (animal #10, 12 J/cm^2) of the same molecule?
Answer: The value was “pattern was apparent at the 2 hr time point, and at the 24 hr time point there was FITC-Dextran present at high levels”.

Question: And the “Leakage of 150 kD FITC-Dextran from the treated vessels at 1 hr post probe administration” value [1]?
Answer: The value was “with significant leakage apparent”.

Question: What about the “Leakage of 150 kD FITC-Dextran from vessels outside the treatment field at 1 hr post probe administration” value [1] of the same molecule?
Answer: The value was “from the treated vessels in region 1, some minor leakage from vessels in region 3 and no leakage from vessels in region”.

Question: And the “2,000 kD FITC-Dextran leakage in tissue and cells outside the treatment field at 24 hr” value (animal #11, 12 J/cm^2)?
Answer: Its value is “FITC-Dextran uptake in tissues and cells in this region. The tissue and cells in regions 2 and 3 showed some minor”.

Question: And the “Leakage of 2,000 kD FITC-Dextran from vessels outside the treatment field at 1 hr” value (animal #11, 12 J/cm^2, probe 19 min post light irradiation)?
Answer: Its value is “no leakage from vessels in regions 2 and 3”.

Question: What about the “Leakage of 2,000 kD FITC-Dextran from vessels outside the treatment field at 1 hr” value (animal #12, 8 J/cm^2, probe 3 min post light irradiation) of the same molecule?
Answer: The value was “no leakage from vessels in regions 2 and 3”.

Question: And the “Leakage of secondary probe 155 kD TRITC-Dextran from vessels in the treatment field” value (animal #12, 8 J/cm^2, probe administered 24 hr post light irradiation)?
Answer: Its value is “significant on-going leakage from vessels in region 1”.

Question: And the “Leakage of secondary probe 2,000 kD FITC-Dextran from vessels in the treatment field” value [2]?
Answer: The value was “significant on-going leakage from vessels in region 1”.

Question: And the “Leakage of secondary probe 2,000 kD FITC-Dextran from vessels outside the treatment field” value [2]?
Answer: Its value is “no evidence of on-going leakage”.
